Experimental data taken from patent publication US10479784B2, “Substituted pyrazin-2-amines as inhibitors of ATR kinase” (Vertex Pharmaceuticals Incorporated, priority 2008, dated 2019).

Target: full-length ATR (Homo sapiens (Human), UniProt Q13535)
Test: ATR Inhibition Assay (radioactive-phosphate incorporation)
Type: biochemical
Settings: read-out: ATR Ki
Outline: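 Full-length human ATR (5 nM) was assayed at 25 °C in 50 mM Tris/HCl pH 7.5, 10 mM MgCl2, 1 mM DTT, with 10 μM [γ-33P]ATP and 800 μM peptide, after 10-min compound preincubation. Reactions were stopped after 24 h, captured on phosphocellulose and counted; Ki(app) came from non-linear regression of initial rates.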

full-length ATR, sequence (Q13535 whole entry): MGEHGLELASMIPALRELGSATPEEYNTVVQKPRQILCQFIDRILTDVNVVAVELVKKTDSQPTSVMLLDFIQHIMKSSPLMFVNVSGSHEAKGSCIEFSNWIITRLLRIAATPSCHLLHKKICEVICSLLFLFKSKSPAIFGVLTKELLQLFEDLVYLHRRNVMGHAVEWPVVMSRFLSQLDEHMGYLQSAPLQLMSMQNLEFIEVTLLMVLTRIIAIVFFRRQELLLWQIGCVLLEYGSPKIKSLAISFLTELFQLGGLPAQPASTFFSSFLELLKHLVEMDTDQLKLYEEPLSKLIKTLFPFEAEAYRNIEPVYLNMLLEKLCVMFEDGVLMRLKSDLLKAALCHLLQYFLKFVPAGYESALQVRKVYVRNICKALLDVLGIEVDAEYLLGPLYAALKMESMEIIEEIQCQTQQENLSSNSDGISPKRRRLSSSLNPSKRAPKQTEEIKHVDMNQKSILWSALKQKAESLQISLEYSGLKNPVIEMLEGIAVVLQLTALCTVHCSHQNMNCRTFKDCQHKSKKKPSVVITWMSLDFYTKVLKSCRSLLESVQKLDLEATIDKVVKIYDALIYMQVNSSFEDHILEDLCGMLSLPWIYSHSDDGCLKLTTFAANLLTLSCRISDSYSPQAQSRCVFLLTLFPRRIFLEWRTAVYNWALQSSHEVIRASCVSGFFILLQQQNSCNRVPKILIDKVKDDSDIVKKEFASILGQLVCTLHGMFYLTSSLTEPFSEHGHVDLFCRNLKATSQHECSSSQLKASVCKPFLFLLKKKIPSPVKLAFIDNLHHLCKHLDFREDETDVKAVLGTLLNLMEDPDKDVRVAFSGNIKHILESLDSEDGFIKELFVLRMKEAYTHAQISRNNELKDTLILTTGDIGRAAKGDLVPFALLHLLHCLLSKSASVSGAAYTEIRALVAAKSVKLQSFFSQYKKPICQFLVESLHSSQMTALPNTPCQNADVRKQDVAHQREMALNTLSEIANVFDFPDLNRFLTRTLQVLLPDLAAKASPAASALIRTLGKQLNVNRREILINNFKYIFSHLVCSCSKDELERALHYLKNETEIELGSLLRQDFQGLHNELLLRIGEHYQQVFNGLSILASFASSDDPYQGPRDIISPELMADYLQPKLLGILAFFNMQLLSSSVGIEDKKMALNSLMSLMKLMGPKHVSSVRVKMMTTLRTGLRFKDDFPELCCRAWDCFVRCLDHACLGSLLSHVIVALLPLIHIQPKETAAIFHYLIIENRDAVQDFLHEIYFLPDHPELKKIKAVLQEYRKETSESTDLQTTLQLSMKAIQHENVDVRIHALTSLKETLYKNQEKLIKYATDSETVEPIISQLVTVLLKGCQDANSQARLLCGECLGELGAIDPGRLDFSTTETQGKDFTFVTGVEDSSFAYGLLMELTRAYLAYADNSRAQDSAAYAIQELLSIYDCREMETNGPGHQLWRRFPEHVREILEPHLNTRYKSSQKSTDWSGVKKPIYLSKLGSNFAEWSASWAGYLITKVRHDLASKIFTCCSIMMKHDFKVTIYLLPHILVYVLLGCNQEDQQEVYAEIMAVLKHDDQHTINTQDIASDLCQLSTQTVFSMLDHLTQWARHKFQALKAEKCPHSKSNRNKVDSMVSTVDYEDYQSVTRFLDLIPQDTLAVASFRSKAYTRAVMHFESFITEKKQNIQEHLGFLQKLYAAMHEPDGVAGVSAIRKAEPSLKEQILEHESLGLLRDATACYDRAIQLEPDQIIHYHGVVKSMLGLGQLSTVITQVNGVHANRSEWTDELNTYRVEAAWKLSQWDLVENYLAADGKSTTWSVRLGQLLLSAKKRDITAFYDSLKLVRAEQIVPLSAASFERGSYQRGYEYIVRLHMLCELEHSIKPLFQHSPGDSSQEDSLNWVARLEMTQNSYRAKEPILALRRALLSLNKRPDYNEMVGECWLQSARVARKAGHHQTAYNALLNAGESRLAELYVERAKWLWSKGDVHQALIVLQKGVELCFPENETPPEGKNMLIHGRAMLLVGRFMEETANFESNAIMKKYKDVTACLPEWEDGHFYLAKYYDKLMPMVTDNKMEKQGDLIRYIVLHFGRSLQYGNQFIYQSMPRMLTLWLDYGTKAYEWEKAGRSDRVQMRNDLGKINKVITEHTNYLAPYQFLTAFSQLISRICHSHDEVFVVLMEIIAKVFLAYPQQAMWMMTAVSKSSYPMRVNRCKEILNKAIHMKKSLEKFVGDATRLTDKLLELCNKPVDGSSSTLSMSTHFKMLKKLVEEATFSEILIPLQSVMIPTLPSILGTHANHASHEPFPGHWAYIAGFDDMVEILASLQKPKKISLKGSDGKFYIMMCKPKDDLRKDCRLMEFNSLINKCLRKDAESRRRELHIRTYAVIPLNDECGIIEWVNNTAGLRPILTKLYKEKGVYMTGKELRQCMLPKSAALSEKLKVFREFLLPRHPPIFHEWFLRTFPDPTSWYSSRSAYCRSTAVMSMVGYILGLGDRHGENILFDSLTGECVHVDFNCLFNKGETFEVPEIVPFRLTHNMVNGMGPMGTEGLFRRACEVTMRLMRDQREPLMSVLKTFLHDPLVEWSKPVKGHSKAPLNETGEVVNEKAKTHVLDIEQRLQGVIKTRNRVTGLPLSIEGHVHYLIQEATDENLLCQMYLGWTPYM

Question: With `Nc1ncc(-c2cccnc2)nc1C(=O)Nc1ccncn1` [Compound I-89, 3-amino-6-(pyridin-3-yl)-N-(pyrimidin-4-yl)pyrazine-2-carboxamide] as the molecule, how does the Ki read?
Answer: 100 to 5000 nM

Question: Which Ki does the source give for `Nc1ncc(-c2cccc(C(=O)N3CCC(O)C3)c2)nc1C(=O)Nc1ccccc1` (stereo not drawn) [Compound I-65, 3-amino-6-(3-(3-hydroxypyrrolidine-1-carbonyl)phenyl)-N-phenylpyrazine-2-carboxamide] here?
Answer: 100 to 5000 nM

Question: For `Nc1ncc(-c2cccnc2)nc1C(=O)Nc1ccc2[nH]ccc2c1` [Compound I-104, 3-amino-N-(1H-indol-5-yl)-6-(pyridin-3-yl)pyrazine-2-carboxamide], which Ki is on record?
Answer: 10 to 100 nM

Question: For `N#Cc1cnccc1-c1cnc(N)c(-c2nnc(-c3ccccc3)o2)n1` [IA-35], which Ki is on record?
Answer: ≤ 10 nM

Question: With `CNCc1ccc(-c2nnc(-c3nc(-c4ccc(S(=O)(=O)C(C)CC(C)(C)O)cc4)cnc3N)o2)c(F)c1` (stereo not drawn) [IA-328, 4-[4-[5-amino-6-[5-[2-fluoro-4-(methylaminomethyl)phenyl]-1,3,4-oxadiazol-2-yl]pyrazin-2-yl]phenyl]sulfonyl-2-methyl-pentan-2-ol] as the molecule, how does the Ki read?
Answer: ≤ 10 nM

Question: Which Ki does the source give for `Nc1ncc(-c2cccc(C(=O)N3CCC(CO)CC3)c2)nc1C(=O)Nc1ccccc1` [Compound I-50, 3-amino-6-(3-(4-(hydroxymethyl)piperidine-1-carbonyl)phenyl)-N-phenylpyrazine-2-carboxamide] here?
Answer: 100 to 5000 nM

Question: With `Nc1ncc(-c2ccc(C(=O)N3CCC3)cc2)nc1C(=O)Nc1ccccc1` [Compound I-72, 3-amino-6-(4-(azetidine-1-carbonyl)phenyl)-N-phenylpyrazine-2-carboxamide] as the molecule, how does the Ki read?
Answer: 10 to 100 nM

Question: Which Ki does the source give for `CNCc1ccc(-c2nnc(-c3nc(-c4ccc(S(=O)(=O)C(C)C)c(F)c4)cnc3N)o2)c(F)c1` [IA-321, 5-(3-fluoro-4-isopropylsulfonyl-phenyl)-3-[5-[2-fluoro-4-(methylaminomethyl)phenyl]-1,3,4-oxadiazol-2-yl]pyrazin-2-amine] here?
Answer: ≤ 10 nM

Question: With `Nc1ncc(-c2ccccc2)nc1C(=O)Nc1ccccc1` [Compound I-15, 3-amino-N,6-diphenylpyrazine-2-carboxamide] as the molecule, how does the Ki read?
Answer: 100 to 5000 nM

Question: How did the Ki turn out when `CN(C)C(=O)c1ccc(-c2cnc(N)c(-c3nnc(-c4ccccc4)s3)n2)c(C#N)c1` [IVA-1, 4-[5-amino-6-(5-phenyl-1,3,4-thiadiazol-2-yl)pyrazin-2-yl]-3-cyano-N,N-dimethyl-benzamide] was run?
Answer: ≤ 10 nM

Question: With `CN(C)C(=O)c1ccc(-c2cnc(N)c(-c3nnc(Nc4ccccc4Cl)o3)n2)cc1` [IA-151, 4-[5-amino-6-[5-(2-chloroanilino)-1,3,4-oxadiazol-2-yl]pyrazin-2-yl]-N,N-dimethyl-benzamide] as the molecule, how does the Ki read?
Answer: 10 to 100 nM

Question: For `Cn1c(NC(=O)c2nc(-c3ccc(C(=O)N4CCCNCC4)cc3)cnc2N)nc2ccccc21` [Compound V-7], which Ki is on record?
Answer: 100 to 5000 nM

Question: With `CNCc1ccc(-c2nnc(-c3nc(-c4ccc(S(=O)(=O)C(C)C)cc4)cnc3N)o2)c(C)c1` [IA-166, 5-(4-isopropylsulfonylphenyl)-3-[5-[2-methyl-4-(methylaminomethyl)phenyl]-1,3,4-oxadiazol-2-yl]pyrazin-2-amine] as the molecule, how does the Ki read?
Answer: ≤ 10 nM

Question: With `N#CCc1ccccc1-c1cnc(N)c(-c2nnc(-c3ccccc3)o2)n1` [IA-221, 2-[2-[5-amino-6-(5-phenyl-1,3,4-oxadiazol-2-yl)pyrazin-2-yl]phenyl]acetonitrile] as the molecule, how does the Ki read?
Answer: 100 to 5000 nM

Question: How did the Ki turn out when `Nc1ncc(-c2cccnc2)nc1C(=O)Nc1cccc(F)c1` [Compound I-103, 3-amino-N-(3-fluorophenyl)-6-(pyridin-3-yl)pyrazine-2-carboxamide] was run?
Answer: 10 to 100 nM

Question: With `Nc1ncc(-c2ccsc2)nc1-c1nnc(-c2ccccc2)o1` [IA-104, 3-(5-phenyl-1,3,4-oxadiazol-2-yl)-5-(3-thienyl)pyrazin-2-amine] as the molecule, how does the Ki read?
Answer: 10 to 100 nM

Question: For `CC(C)(C)OC(=O)N1CCCN(C(=O)c2ccc(-c3cnc(N)c(-c4nnc(-c5ccccc5)o4)n3)c(C#N)c2)CC1` [IA-19], which Ki is on record?
Answer: ≤ 10 nM

Question: How did the Ki turn out when `Nc1ncc(-c2cccnc2)nc1C(=O)Nc1ccccc1OC(F)(F)F` [Compound I-102, 3-amino-6-(pyridin-3-yl)-N-(2-(trifluoromethoxy)phenyl)pyrazine-2-carboxamide] was run?
Answer: 10 to 100 nM
